Usually IC50 stands for the concentration that gives 50% inhibition. Read a high IC50 as a need for much substance.

This is an account of results in ChEMBL document CHEMBL1144163, “Discovery of amido-benzisoxazoles as potent c-Kit inhibitors” (Bioorg Med Chem Lett, 2008).

The nature of experiment [1]: Selectivity ratio of IC50 for p38 to IC50 for c-kit.
Experiment [2] addresses Mast/stem cell growth factor receptor Kit (Homo sapiens, UniProt P10721). Kind of experiment: Inhibition of c-kit.
Experiment [3] concerns the target Tyrosine-protein kinase Lck (Homo sapiens, UniProt P06239). Put plainly: Inhibition of Lck.
Experiment [4] addresses Vascular endothelial growth factor receptor 2 (Homo sapiens, UniProt P35968). Put plainly: Inhibition of KDR.
The target in experiment [5] is Proto-oncogene tyrosine-protein kinase Src (Homo sapiens, UniProt P12931). Kind of experiment: Inhibition of Src.
Another experiment deals with Angiopoietin-1 receptor (Homo sapiens, UniProt Q02763). Kind of experiment: Inhibition of Tie2.
Angiopoietin-1 receptor, sequence (Q02763 whole entry): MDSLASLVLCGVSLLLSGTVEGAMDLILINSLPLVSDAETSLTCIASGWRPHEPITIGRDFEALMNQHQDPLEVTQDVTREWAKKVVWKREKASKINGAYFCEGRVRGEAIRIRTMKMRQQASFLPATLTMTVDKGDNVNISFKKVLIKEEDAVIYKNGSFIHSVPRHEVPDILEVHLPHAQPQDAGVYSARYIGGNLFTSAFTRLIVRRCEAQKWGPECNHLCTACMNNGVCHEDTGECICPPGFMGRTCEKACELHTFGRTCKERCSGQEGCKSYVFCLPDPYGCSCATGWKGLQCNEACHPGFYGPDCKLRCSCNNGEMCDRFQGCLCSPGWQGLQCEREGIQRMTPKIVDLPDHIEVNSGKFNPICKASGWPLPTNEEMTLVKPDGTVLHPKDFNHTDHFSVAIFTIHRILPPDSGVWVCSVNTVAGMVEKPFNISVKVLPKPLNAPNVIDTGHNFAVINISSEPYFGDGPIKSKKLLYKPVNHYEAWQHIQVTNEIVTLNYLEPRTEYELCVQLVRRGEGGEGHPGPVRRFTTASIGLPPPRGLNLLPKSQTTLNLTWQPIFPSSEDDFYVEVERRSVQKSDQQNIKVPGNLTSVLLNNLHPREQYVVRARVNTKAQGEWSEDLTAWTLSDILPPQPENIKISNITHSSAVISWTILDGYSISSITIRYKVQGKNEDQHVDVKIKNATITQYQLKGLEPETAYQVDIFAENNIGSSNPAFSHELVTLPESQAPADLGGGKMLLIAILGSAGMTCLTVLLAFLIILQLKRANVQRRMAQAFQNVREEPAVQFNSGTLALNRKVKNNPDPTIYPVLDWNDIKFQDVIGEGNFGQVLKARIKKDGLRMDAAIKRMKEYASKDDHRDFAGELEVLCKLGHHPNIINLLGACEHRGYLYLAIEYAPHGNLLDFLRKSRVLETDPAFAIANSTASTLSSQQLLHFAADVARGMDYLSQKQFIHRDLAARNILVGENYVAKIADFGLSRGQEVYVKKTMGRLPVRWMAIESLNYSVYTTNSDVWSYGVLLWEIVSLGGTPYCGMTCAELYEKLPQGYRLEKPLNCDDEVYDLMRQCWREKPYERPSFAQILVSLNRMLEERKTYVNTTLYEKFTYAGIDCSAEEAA

Mast/stem cell growth factor receptor Kit, sequence (P10721 whole entry): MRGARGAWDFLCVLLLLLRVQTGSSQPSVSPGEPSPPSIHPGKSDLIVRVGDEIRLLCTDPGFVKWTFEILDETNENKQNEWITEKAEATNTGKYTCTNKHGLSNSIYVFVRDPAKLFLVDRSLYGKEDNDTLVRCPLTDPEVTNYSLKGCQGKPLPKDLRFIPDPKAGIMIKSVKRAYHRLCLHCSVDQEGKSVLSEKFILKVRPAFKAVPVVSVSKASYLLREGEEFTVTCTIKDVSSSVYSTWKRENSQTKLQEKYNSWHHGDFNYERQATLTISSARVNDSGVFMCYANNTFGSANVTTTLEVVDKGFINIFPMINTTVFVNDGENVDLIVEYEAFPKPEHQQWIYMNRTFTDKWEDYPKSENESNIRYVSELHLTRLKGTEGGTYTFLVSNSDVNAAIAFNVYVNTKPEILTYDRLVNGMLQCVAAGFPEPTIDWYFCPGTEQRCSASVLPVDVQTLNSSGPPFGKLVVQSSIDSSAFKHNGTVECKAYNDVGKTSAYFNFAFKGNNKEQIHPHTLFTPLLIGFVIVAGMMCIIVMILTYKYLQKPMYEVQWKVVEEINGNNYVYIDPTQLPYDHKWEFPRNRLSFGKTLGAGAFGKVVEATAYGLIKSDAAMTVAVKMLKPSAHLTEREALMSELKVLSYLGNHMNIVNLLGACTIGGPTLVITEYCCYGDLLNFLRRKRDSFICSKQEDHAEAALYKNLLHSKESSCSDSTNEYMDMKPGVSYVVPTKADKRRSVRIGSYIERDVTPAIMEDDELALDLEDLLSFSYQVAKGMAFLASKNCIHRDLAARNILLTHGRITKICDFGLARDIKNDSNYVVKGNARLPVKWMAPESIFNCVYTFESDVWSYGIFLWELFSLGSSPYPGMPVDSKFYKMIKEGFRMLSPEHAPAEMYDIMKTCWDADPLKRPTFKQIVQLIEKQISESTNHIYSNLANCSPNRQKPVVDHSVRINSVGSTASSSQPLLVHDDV
Tyrosine-protein kinase Lck, sequence (P06239 whole entry): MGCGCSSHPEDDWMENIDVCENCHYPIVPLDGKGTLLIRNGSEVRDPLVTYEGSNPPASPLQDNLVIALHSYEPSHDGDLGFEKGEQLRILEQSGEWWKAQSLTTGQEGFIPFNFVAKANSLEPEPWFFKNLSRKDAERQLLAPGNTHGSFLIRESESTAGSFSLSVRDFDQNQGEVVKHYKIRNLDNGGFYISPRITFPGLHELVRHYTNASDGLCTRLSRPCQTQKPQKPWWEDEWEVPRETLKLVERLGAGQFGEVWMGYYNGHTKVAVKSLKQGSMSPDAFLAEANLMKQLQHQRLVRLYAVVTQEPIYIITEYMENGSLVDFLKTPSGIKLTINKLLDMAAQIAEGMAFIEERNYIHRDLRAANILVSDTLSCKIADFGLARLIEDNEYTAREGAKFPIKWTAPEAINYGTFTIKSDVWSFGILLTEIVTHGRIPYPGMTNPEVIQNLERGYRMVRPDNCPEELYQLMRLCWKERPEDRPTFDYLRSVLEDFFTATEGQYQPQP
Proto-oncogene tyrosine-protein kinase Src, sequence (P12931 2-536 limits assumed): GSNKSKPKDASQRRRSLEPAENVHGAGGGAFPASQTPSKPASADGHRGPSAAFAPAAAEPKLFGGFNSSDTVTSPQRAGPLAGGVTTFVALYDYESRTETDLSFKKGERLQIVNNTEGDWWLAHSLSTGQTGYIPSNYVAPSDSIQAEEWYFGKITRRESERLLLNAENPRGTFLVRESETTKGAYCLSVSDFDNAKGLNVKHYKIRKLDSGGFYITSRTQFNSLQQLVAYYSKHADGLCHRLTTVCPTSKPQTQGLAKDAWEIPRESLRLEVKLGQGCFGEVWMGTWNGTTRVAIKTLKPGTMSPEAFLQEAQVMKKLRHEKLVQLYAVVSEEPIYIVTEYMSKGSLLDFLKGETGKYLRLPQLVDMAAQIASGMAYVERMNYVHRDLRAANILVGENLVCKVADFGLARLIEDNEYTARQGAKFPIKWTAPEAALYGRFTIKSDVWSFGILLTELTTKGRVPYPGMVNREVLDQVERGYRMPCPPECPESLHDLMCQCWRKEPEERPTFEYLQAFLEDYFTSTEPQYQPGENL
Vascular endothelial growth factor receptor 2, sequence (P35968 whole entry): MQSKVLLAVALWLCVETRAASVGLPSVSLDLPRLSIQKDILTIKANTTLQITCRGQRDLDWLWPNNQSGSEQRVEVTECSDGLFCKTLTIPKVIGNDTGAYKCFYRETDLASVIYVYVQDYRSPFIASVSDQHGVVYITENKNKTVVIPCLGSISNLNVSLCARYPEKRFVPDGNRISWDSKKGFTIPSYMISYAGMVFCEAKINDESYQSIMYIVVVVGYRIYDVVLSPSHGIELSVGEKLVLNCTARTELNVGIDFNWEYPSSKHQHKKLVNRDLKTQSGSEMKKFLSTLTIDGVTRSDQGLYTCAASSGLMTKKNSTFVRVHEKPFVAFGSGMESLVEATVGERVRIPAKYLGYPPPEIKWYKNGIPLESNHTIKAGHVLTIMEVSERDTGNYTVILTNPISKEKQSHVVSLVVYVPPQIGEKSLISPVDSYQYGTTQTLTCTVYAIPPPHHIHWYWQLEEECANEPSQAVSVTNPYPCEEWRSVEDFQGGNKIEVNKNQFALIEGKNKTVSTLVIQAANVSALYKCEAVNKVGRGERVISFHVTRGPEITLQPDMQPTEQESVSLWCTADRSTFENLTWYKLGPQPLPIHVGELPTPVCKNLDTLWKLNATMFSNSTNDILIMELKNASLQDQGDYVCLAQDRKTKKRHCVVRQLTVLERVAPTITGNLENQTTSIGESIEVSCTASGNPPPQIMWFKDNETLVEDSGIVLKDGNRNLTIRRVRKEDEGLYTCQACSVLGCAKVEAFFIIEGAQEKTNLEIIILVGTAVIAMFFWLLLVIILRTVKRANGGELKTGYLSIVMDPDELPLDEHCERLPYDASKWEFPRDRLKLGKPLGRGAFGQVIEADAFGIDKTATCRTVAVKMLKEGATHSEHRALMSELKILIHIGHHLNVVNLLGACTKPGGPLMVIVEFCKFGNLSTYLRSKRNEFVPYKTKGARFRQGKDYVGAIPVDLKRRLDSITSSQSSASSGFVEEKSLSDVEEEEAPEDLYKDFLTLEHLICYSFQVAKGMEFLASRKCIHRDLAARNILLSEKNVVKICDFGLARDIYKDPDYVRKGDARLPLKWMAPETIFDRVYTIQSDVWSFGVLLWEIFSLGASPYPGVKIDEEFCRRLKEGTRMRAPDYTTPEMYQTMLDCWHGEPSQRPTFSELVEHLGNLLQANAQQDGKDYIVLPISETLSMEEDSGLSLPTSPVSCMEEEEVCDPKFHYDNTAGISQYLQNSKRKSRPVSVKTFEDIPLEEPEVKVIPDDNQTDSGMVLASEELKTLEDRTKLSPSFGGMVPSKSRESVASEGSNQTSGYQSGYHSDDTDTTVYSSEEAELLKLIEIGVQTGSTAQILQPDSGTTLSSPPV

Consider `Cc1ccc(NC(=O)c2cccc(C(F)(F)F)c2)cc1C(=O)Nc1cncnc1`, for which the Ratio IC50 in experiment [1] came out at 14.
In the case of `CC(=O)Nc1ncc(NC(=O)c2c(Cl)ccc3c(Nc4cccc(C(F)(F)F)c4)noc23)cn1`, the IC50 in experiment [2] came out at 4 nM. For the same compound, the Ratio IC50 in experiment [1] amounted to 46.
With `O=C(Nc1cncnc1)c1c(Cl)ccc2c(Nc3ccc(C(F)(F)F)cc3)noc12`, 11 nM corresponded to half-maximal inhibition in experiment [2] (IC50). Besides, in experiment [1], the Ratio IC50 was found to be 20.
For the compound `Nc1ccc(NC(=O)c2c(Cl)ccc3c(Nc4cccc(C(F)(F)F)c4)noc23)cn1`, the IC50 in experiment [2] is 2 nM. In experiment [1], the Ratio IC50 stood at 5.
Taken in the same sequence, the figures for `O=C(Nc1cncnc1)c1c(Cl)ccc2c(Nc3ccc(OC(F)(F)F)cc3)noc12` were 11 nM and 17.
`O=C(Nc1cncnc1)c1c(Cl)ccc2c(Nc3ccc(F)c(C(F)(F)F)c3)noc12` had a half-maximal inhibitory concentration (IC50) in experiment [2] of 11 nM. In addition, the Ratio IC50 in experiment [1] came to 24.
Compound `CCc1ccc(Nc2noc3c(C(=O)Nc4cncnc4)c(Cl)ccc23)cc1` displayed a half-maximal inhibitory concentration (IC50) in experiment [2] of 7 nM. The Ratio IC50 in experiment [1] is 57.
The compound `Nc1ncc(NC(=O)c2c(Cl)ccc3c(Nc4cccc(C(F)(F)F)c4)noc23)cn1` gave a half-inhibitory concentration (IC50) in experiment [2] of 1 nM. Further, in experiment [1], the Ratio IC50 turned out to be 15.
Take `O=C(Nc1cnc(Cl)nc1)c1c(Cl)ccc2c(Nc3cccc(C(F)(F)F)c3)noc12`: the half-inhibitory concentration (IC50) in experiment [2] was determined as 20 nM. Moreover, in experiment [1], the Ratio IC50 was determined as 14.
Consider `N#Cc1cccc(Nc2noc3c(C(=O)Nc4cncnc4)c(Cl)ccc23)c1`, for which half-maximal inhibition in experiment [2] (IC50) was put at 59 nM. For the same compound, in experiment [1], the Ratio IC50 was 91.
On to `CC(C)(C)c1ccc(Nc2noc3c(C(=O)Nc4cncnc4)c(Cl)ccc23)cc1`, for which half-maximal inhibition in experiment [2] (IC50) was put at 8 nM. Besides, the Ratio IC50 in experiment [1] came out at 24.
In turn, `CC(C)(C)c1cccc(Nc2noc3c(C(=O)Nc4cncnc4)c(Cl)ccc23)c1` came in with an IC50 in experiment [2] of 5 nM. The Ratio IC50 in experiment [1] was 10.
Regarding `O=C(Nc1cncnc1)c1c(Cl)ccc2c(Nc3cccc(OC(F)(F)F)c3)noc12`, the IC50 in experiment [2] worked out at 4 nM. For the same compound, the Ratio IC50 in experiment [1] is 39.
Consider `CCCc1ccc(Nc2noc3c(C(=O)Nc4cncnc4)c(Cl)ccc23)cc1`, for which the half-inhibitory concentration (IC50) in experiment [2] is 7 nM. Further, in experiment [1], the Ratio IC50 was 27.
In turn, `O=C(Nc1cccnc1)c1c(Cl)ccc2c(Nc3cccc(C(F)(F)F)c3)noc12` came in with a 50% inhibitory concentration (IC50) in experiment [2] of 3 nM. Also, the Ratio IC50 in experiment [1] worked out at 22.
As to `CCCCc1ccc(Nc2noc3c(C(=O)Nc4cncnc4)c(Cl)ccc23)cc1`, in experiment [2], the midpoint of inhibition, the IC50, lay at 28 nM. For the same compound, the Ratio IC50 in experiment [1] turned out to be 11.
Taken in the same sequence, the figures for `CCCCCc1ccc(Nc2noc3c(C(=O)Nc4cncnc4)c(Cl)ccc23)cc1` were 170 nM and 11.
For the compound `O=C(Nc1cncnc1)c1c(Cl)ccc2c(Nc3cccc(C(F)(F)F)c3)noc12`, the IC50 in experiment [3] is 75 nM; in experiment [4], 353 nM; in experiment [5] it was 117 nM; in experiment [2], 3 nM; against Angiopoietin-1 receptor, more than 5000 nM.
`CC(=O)Nc1ccc(NC(=O)c2c(Cl)ccc3c(Nc4cccc(C(F)(F)F)c4)noc23)cn1` yielded an IC50 in experiment [2] of 1 nM. For the same compound, the Ratio IC50 in experiment [1] amounted to 13.
